Experimental data published in article PMC8750527 (Cancers, 2021).

Columns and labels:
MB cells [1] = assay: Cell viability, propidium iodine incorporation, MB cells; type: cell-based, human; conditions: 48 h, 5 µM
Description: Cell viability assays were conducted using a propidium iodine incorporation technique with an ADAM-sHIT automated cell counter (NanoEnTek, Gyeonggi-do, Korea) according to the manufacturer’s protocol.

MB cells [2] = assay: Proliferation index assay, MB cells; type: cell-based, human; conditions: after 120 h; axitinib 5 µM, etoposide 1 µM
Description: DAOY, D458, D283, C8-D1A and HDF (30,000 cells per well) and HD-MB03 (50,000 cells per well) were seeded in 24-well plates for proliferation assays.

HD-MB03 = assay: Cumulative population doubling (CPD), HD-MB03; type: cell-based, human; conditions: continuous treatment; axitinib 5 µM, etoposide 1 µM
Description: (§1) Cumulative population doubling (CPD) was assessed as previously described. Briefly, depending on the cell line, a variable number of cells corresponding to about 30% confluency were seeded in triplicate in 60 mm diameter Petri dishes. […] The cells were harvested when the confluency reached about 90%, counted and plated again at a dilution of 1/20. CPD was calculated as previously described.

C8-D1A = assay: Cumulative population doubling (CPD), C8-D1A; type: cell-based, murine
Description: as §1

HDF = assay: Cumulative population doubling (CPD), HDF; type: cell-based, human; conditions: transient treatment for 48 h, 5 µM
Description: as §1

[3] = tested on: MB cells (DAOY, HD-MB03, D283, D458, CHLA-01-MED spheroids); assay: Spheroid assay, five MB cell lines; type: cell-based, human; conditions: 5 µM, continuous treatment
Description: (§2) Two thousand cells were seeded in ultralow-adhesion 96-well plates (Corning Inc., Corning, NY, USA). […] Pictures were taken with an AMG Evos microscope 40× objective (Thermo Fisher Scientific Inc, Waltham, MA, USA) and the spheroid areas were measured using the ImageJ software (NIH, Bethesda, MD, USA).

[4] = tested on: C8-D1A/HD-MB03 mixed spheroids; assay: 3D mixed spheroids of astrocytes and MB cells; type: cell-based; conditions: 7 days; axitinib 5 µM or etoposide 1 µM
Description: C8-D1A cells were stained with the green fluorescent probe neuro-DiO (cat. number 60015, Biotium, Fremont, CA, USA) according to the manufacturer’s protocol. C8-D1A-neuroDio cells (150,000) and HD-MB03-mCherry or DAOY-mCherry cells (50,000) were plated in 12-well plates. […] Fluorescence images of the cells were taken with a DMI400 inverted microscope (Leica Microsystemes SAS, Nanterre, France) equipped with a 40× objective and a Zyla 5.5 camera (Andor Technologies, Belfast, UK). The cells were then trypsinized and the number of both cell types was quantified using a Melody FACS (BD Biosciences, Frankton Lake, NJ, USA) with a 488 nm laser beam. Analysis of the FACS data was conducted with the Flowjo software (Tree Star Inc., Ashland, OR, USA).
as §2

20-day-old Wistar rats = assay: Juvenile rat toxicity experiment; type: in vivo; conditions: 50 mg/kg daily, oral gavage, four weeks; female and male
Text: (§3) The experiments were approved by Comité National Institutionnel d’Ethique pour l’Animal de Laboratoire (France). The rats were bled and the brains were recovered and flash-frozen at the end of the experiment.

[5] = LC/MS measurement of axitinib in rat cerebellum; type: in vivo; conditions: after 28 days of 50 mg/kg/day oral gavage
Text: as §3

[6] = tested on: barrier formed by BEC (hCMEC/D3); assay: In vitro BBB permeability assay (FITC-Dextran), BEC; type: cell-based, human; conditions: 3-day treatment, nontoxic doses
Description: This assay was conducted as previously described. […] Permeability was measured by the passage of 40 kDa FITC-Dextran through the inserts. Fluorescence intensity measures were normalized to the DMSO control.

[7] = tested on: subcutaneous HD-MB03 tumors; assay: Subcutaneous HD-MB03 xenografts; type: in vivo, mouse; conditions: oral, thrice a week
Description: For subcutaneous xenograft experiments, tumor cells expressing the luciferase (350,000 HDMB-Luc cells and 1.10^6 DAOY-Luc cells) were resuspended in 200 µL of 5 µg/mL Matrigel (Corning Inc., Corning, NY, USA) and injected subcutaneously in the flank of 5-week-old Rj:NMRI-Foxn1 nude (nu/nu) female mice (Janvier Labs, Le Genest-Saint-Isle, France). Saline solution (NaCl 0.9M; 100 µL) containing 30 mg/mL D-Luciferin (Perkin Elmer, Wellesley, MA, USA) was injected intraperitoneally in the animals and the bioluminescence was quantified using an In Vivo Imaging System (Perkin Elmer, Wellesley, MA, USA) according to the manufacturer’s instructions. Tumor volume (V = L × l2 × 0.52) was determined with a caliper and the endpoint was determined as a tumor volume of 1000 mm^3. […] The mice were sacrificed when the tumor reached 1000 mm^3. […] No statistical methods were used to predetermine the sample size of the experiments. Animal facility availability and cost were used to determine sample sizes. Two independent cohorts of five mice per group were used for the tumor growth experiment with HD-MB03 cells and one cohort of five mice per group was used for the experiment with DAOY cells. Animal experiments were carried out in strict accordance with the recommendations in the Guide for the Care and Use of Laboratory Animals. Our experiments were approved by Direction de l’Action Sanitaire et Sociale of the Principality of Monaco and the ethics committee of Centre Scientifique de Monaco.
The growth rate of the tumors generated with HD-MB03 cells was determined using a linear regression method applied to the growth curves between the sizes of 400 mm^3 up to the endpoint using Prism 5 (Graphpad Software Inc., San Diego, CA, USA).
Tumor samples were recovered from the animals and embedded in the OCT compound according to the manufacturer’s protocol (Thermo Fisher Scientific Inc., Waltham, MA, USA). After that, 5 µm thin sections were prepared with a cryostat (Leica Microsystems, Wetzlar, Germany). Incubation was carried out with the following antibodies diluted at 1:1000 in TBS supplemented with 1% horse serum and 1% BSA for 20 min at room temperature: anti-Ki67 (cat. number ab16667, Abcam, Cambridge, UK), anti-CD31 (cat. number 550274, BD Biosciences, Frankton Lake, NJ, USA) or anti-αSMA (cat. number A2547, Merck Millipore, Burlington, MA, USA). The preparations were then washed with TBS–0.025% Triton, incubated with anti-rabbit Alexa488 and anti-mouse Alex-555-coupled secondary antibodies (Cell Signaling Technology, Danvers, MA, USA), washed with TBS–0.025% Triton, and the nuclei were counterstained with Hoechst33342 (Thermo Fisher Scientific, Waltham, MA, USA). Fluorescence images of the cells were taken with a DMI400 inverted microscope equipped with a 40× objective (Leica Microsystemes, Nanterre, France) and a Zyla 5.5 camera (Andor Technologies, Belfast, UK) powered by the Micromanager software. At least one cross-section of nonoverlapping images of each tumor was acquired. All the images were then quantified with the CellProfiler 3.0 software.

[8] = axitinib 50 mg/kg, etoposide 30 mg/kg, combination 25 + 15 mg/kg

Structure (SMILES): CNC(=O)c1ccccc1Sc1ccc2c(/C=C/c3ccccn3)n[nH]c2c1 [Axitinib, axitinib]
- viability of MB cells (MB cells [1]): decreased the viability of most MB cells
- reduction of proliferation of MB cells (MB cells [2]): more than 80%
- long-term proliferation (CPD) of HD-MB03 cells (HD-MB03): strongly impaired their proliferation
- long-term proliferation (CPD) of C8-D1A cells (C8-D1A; continuous treatment, 5 µM axitinib, compared to etoposide 1 µM): milder effect
- proliferation (CPD) of C8-D1A normal cells after removal of the drug (C8-D1A; transient treatment for 48 h, 5 µM): able to proliferate again
- proliferation (CPD) of HDF normal cells after removal of the drug (HDF): able to proliferate again
- 3D growth of MB cell spheroids [3]: abolished 3D growth
- size of mixed spheroids [4]: strong decrease in the size of spheroids
- general behavior and growth rate of juvenile rats (20-day-old Wistar rats): no effect on the general behavior and growth rate
- axitinib content of cerebella (LC/MS) [5]: present in the cerebellum
- permeability of the barrier formed by BEC [6]: permeabilized the barrier
- number of endothelial cells (CD31-positive) and/or pericytes/cancer-associated fibroblasts (αSMA-positive) [7]: did not impact
- surface of necrotic areas [7]: increased the surface of necrotic areas
- tumor growth rates (linear regression, growth phase) [7]: reduced
- median time to reach the endpoint volume (1000 mm^3) [7, 8]: 18 days
- range of time to reach the endpoint volume (1000 mm^3) [7, 8]: 13 to 63 days
